This is an account of results in the supplement of paper PMC11061612.

Structures are written as SMILES.

One assay deals with A204 (Rhabdomyosarcoma). The experiment in a line: Bliss excess, mean over the matrix (fraction); higher = more synergy. Summed up: (§1)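 After 24 hours at 37°C and 5% CO2 in 1536-well plates, cells in DMEM/F12 or RPMI plus 10% FBS received two-drug dose matrices for 72 hours. Viability came from CellTiter-Glo 2.0 luminescence and was scaled as inhibition, anchored at 0 by vehicle wells and at 1 by blank wells. Combination Emax is taken as the second-highest inhibition in the matrix, and Bliss excess as the observed combination effect less EA + EB − EA·EB, with EA and EB the single-agent effects.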

The subject of assay [1] is AU565 (Breast Carcinoma). The description is as above. Summed up:
as §1

For assay [2], the system named is CA46 (Burkitt's Lymphoma). The description is as above. In short, it runs like this:
as §1

The test system of another assay is COLO-792 (Melanoma). Described as above. In short, it runs like this:
as §1

In assay [3] the test system is ESO26 (Esophageal Adenocarcinoma). The description is as above. In short, it runs like this: as §1
A further assay has as its system EW-7 (Ewing's Sarcoma). The description is as above. In short, it runs like this:
as §1

In assay [4] the test system is JHU-022 (Oral Cavity Carcinoma). Described as above. In short, it runs like this: as §1
The subject of assay [5] is LS-411N (Colorectal Carcinoma). Described as above. In short, it runs like this: as §1
Assay [6] concerns MHH-ES-1 (Ewing's Sarcoma). The description is as above. Summed up:
as §1

The test system of the next assay is NB13 (Neuroblastoma). Described as above. Summed up: as §1
Assay [7] deals with NCI-H1703 (Squamous Cell Lung Carcinoma). Described as above. In short, it runs like this:
as §1

Assay [8] has as its system NCI-H441 (Lung Adenocarcinoma). The description is as above. In short, it runs like this: as §1
Assay [9] has as its system NCI-H716 (Colorectal Carcinoma). The assay is described as above. In short, it runs like this:
as §1

The next assay deals with PEO1 (Ovarian Carcinoma). The assay is described as above. Summed up:
as §1

The next assay deals with WM1552C (Melanoma). The assay is described as above. Summed up: as §1
The test system of assay [10] is AU565 (Breast Carcinoma). As to the kind of experiment: combination Emax (second highest fraction inhibited in the dose matrix, 72 h); higher = more inhibition; extreme values may be limits of the assay. Summed up: as §1
In assay [11] the test system is HCC1395 (Breast Carcinoma). The assay is described as above. Summed up: as §1
For assay [12], the system named is LU-165 (Small Cell Lung Carcinoma). Described as above. In short, it runs like this: as §1
For assay [13], the system named is NCI-H1703 (Squamous Cell Lung Carcinoma). The assay is described as above. In short, it runs like this:
as §1

Assay [14] has as its system NCI-H2087 (Lung Adenocarcinoma). The description is as above. In short, it runs like this: as §1
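Throughout, for Bliss excess, mean over the matrix: after 72 h of two-drug dosing.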

As to `CC1(C)CCC(CN2CCN(c3ccc(C(=O)NS(=O)(=O)c4ccc(NCC5CCOCC5)c([N+](=O)[O-])c4)c(Oc4cnc5[nH]ccc5c4)c3)CC2)=C(c2ccc(Cl)cc2)C1` [Venetoclax] + CN(C)CCCOc1ccc(-c2ccc3ncc4c(c3c2)n(C2CCOCC2)c(=O)n4C)cn1 [AZD0156] (first compound max 1 µM, 7x7, partner max 1 µM), the Bliss excess in the assay with A204 (Rhabdomyosarcoma) was -0.0325; in the assay on AU565 (Breast Carcinoma) [1], 0.0206; in assay [2], -0.026; with COLO-792 (Melanoma), 0.0153; in [3], -0.0063; with EW-7 (Ewing's Sarcoma) it was -0.007. Further, the Bliss excess in [4] is -0.0382; in assay [5], -0.0214; in assay [6], 0.0177; with NB13 (Neuroblastoma) it was 0.021; in [7], 0.013; in assay [8], -0.0733. The Bliss excess in assay [9] was -0.0272; in the assay with PEO1 (Ovarian Carcinoma), -0.018; with WM1552C (Melanoma) it was -0.0674. In addition, the “combination Emax” value with AU565 (Breast Carcinoma) [10] came to 0.234; in assay [11], 0.685; in assay [12], 0.164; in assay [13], 0.407; in assay [14] it was 0.149.

In the case of `CC1(C)CCC(CN2CCN(c3ccc(C(=O)NS(=O)(=O)c4ccc(NCC5CCOCC5)c([N+](=O)[O-])c4)c(Oc4cnc5[nH]ccc5c4)c3)CC2)=C(c2ccc(Cl)cc2)C1` [Venetoclax] + COc1cc(Nc2ncc3c(n2)-c2ccc(Cl)cc2C(c2c(F)cccc2OC)=NC3)ccc1C(=O)O [Alisertib] (first compound max 1 µM, 7x7, partner max 10 µM), the Bliss excess is -0.0088 in the assay with A204 (Rhabdomyosarcoma); 0.106 in the assay on AU565 (Breast Carcinoma) [1]; -0.017 in assay [2]; 0.0487 in the assay with COLO-792 (Melanoma); -0.003 in [3]; 0.0262 with EW-7 (Ewing's Sarcoma). Further, the Bliss excess was -0.0385 in assay [4]; -0.0329 in assay [5]; 0.0931 in [6]; 0.0028 in the assay on NB13 (Neuroblastoma); 0.0636 in assay [7]; -0.0511 in [8]. The Bliss excess was -0.0203 in [9], 0.0007 in the assay with PEO1 (Ovarian Carcinoma) and -0.0613 in the assay with WM1552C (Melanoma). Besides, the “combination Emax” value in the assay on AU565 (Breast Carcinoma) [10] came to 0.504; in [11], 0.688; in assay [12], 0.241; in [13] it was 0.554; in assay [14], 0.177.

On to `CC1(C)CCC(CN2CCN(c3ccc(C(=O)NS(=O)(=O)c4ccc(NCC5CCOCC5)c([N+](=O)[O-])c4)c(Oc4cnc5[nH]ccc5c4)c3)CC2)=C(c2ccc(Cl)cc2)C1` [Venetoclax] + C[C@@H]1COCCN1C2=NC(=NC(=C2)C3(CC3)[S@](=N)(=O)C)C4=C5C=CNC5=NC=C4 [AZD6738] (first compound max 1 µM, 7x7, partner max 10 µM), for which the Bliss excess in the assay on A204 (Rhabdomyosarcoma) was -0.0355; with AU565 (Breast Carcinoma) [1], 0.0024; in assay [2], 0.0093; in the assay with COLO-792 (Melanoma) it was 0.03; in [3], -0.0101; in the assay on EW-7 (Ewing's Sarcoma), -0.037. Also, the Bliss excess in assay [4] is -0.007; in assay [5], -0.0311; in assay [6], 0.0077; in the assay on NB13 (Neuroblastoma), 0.0633; in assay [7] it was -0.0216; in [8], -0.0483. For the same molecule, the Bliss excess in assay [9] was -0.0015; in the assay on PEO1 (Ovarian Carcinoma) it was -0.0038; with WM1552C (Melanoma), -0.0603. In addition, the “combination Emax” value in the assay with AU565 (Breast Carcinoma) [10] came to 0.382; in assay [11], 0.771; in assay [12], 0.441; in [13] it was 0.883; in [14], 0.53.

On to `CC1(C)CCC(CN2CCN(c3ccc(C(=O)NS(=O)(=O)c4ccc(NCC5CCOCC5)c([N+](=O)[O-])c4)c(Oc4cnc5[nH]ccc5c4)c3)CC2)=C(c2ccc(Cl)cc2)C1` [Venetoclax] + C[C@@H](Nc1cc(F)cc(F)c1)c1cc(C(=O)N(C)C)cc2c(=O)cc(N3CCOCC3)oc12 [AZD8186] (first compound max 1 µM, 7x7, partner max 3 µM), for which the Bliss excess in the assay with A204 (Rhabdomyosarcoma) was -0.0152; in the assay with AU565 (Breast Carcinoma) [1], -0.0033; in assay [2], 0.0323; with COLO-792 (Melanoma) it was 0.0036; in assay [3] it was -0.0277; in the assay on EW-7 (Ewing's Sarcoma) it was 0.0048. The Bliss excess in assay [4] was -0.0563; in assay [5], 0.0099; in [6] it was -0.0248; in the assay with NB13 (Neuroblastoma), -0.0171; in assay [7] it was 0.0037; in [8], -0.0304. Also, the Bliss excess in assay [9] is -0.047; with PEO1 (Ovarian Carcinoma), -0.0427; with WM1552C (Melanoma), -0.0157. The “combination Emax” value with AU565 (Breast Carcinoma) [10] was 0.225; in assay [11] it was 0.701; in assay [12], 0.219; in [13], 0.422; in assay [14] it was 0.08.

Consider `CC1(C)CCC(CN2CCN(c3ccc(C(=O)NS(=O)(=O)c4ccc(NCC5CCOCC5)c([N+](=O)[O-])c4)c(Oc4cnc5[nH]ccc5c4)c3)CC2)=C(c2ccc(Cl)cc2)C1` [Venetoclax] + Cc1cc2ncnn2cc1Nc1ncc2c(n1)n(C1CCOCC1)c(=O)n2C [AZD7648] (first compound max 1 µM, 7x7, partner max 10 µM), for which the Bliss excess with A204 (Rhabdomyosarcoma) is -0.0172; in the assay on AU565 (Breast Carcinoma) [1], 0.0266; in assay [2] it was -0.0454; in the assay with COLO-792 (Melanoma), -0.0139; in assay [3], -0.0336; in the assay on EW-7 (Ewing's Sarcoma), -0.0345. Further, the Bliss excess was -0.0392 in assay [4]; -0.0184 in [5]; -0.0189 in assay [6]; 0.0559 with NB13 (Neuroblastoma); 0.0396 in assay [7]; -0.0437 in assay [8]. Further, the Bliss excess in [9] was -0.0146; in the assay with PEO1 (Ovarian Carcinoma), -0.033; in the assay with WM1552C (Melanoma) it was -0.0571. The “combination Emax” value in the assay with AU565 (Breast Carcinoma) [10] is 0.295; in assay [11] it was 0.654; in assay [12], 0.196; in assay [13], 0.465; in assay [14], 0.133.

As to `CC1(C)CCC(CN2CCN(c3ccc(C(=O)NS(=O)(=O)c4ccc(NCC5CCOCC5)c([N+](=O)[O-])c4)c(Oc4cnc5[nH]ccc5c4)c3)CC2)=C(c2ccc(Cl)cc2)C1` [Venetoclax] + Cn1cnc2c(F)c(Nc3ccc(Br)cc3Cl)c(C(=O)NOCCO)cc21 [Selumetinib] (first compound max 1 µM, 7x7, partner max 3 µM), the Bliss excess in the assay on A204 (Rhabdomyosarcoma) was -0.0293; in the assay on AU565 (Breast Carcinoma) [1], 0.0147; in [2], -0.068; with COLO-792 (Melanoma) it was 0.0083; in assay [3], -0.0133; in the assay with EW-7 (Ewing's Sarcoma), -0.0058. In addition, the Bliss excess in assay [4] is -0.0181; in [5] it was -0.0148; in assay [6], -0.0424; in the assay with NB13 (Neuroblastoma), -0.0837; in assay [7], 0.0061; in assay [8], -0.043. Further, the Bliss excess is -0.0814 in assay [9], -0.0452 in the assay with PEO1 (Ovarian Carcinoma) and -0.0062 in the assay with WM1552C (Melanoma). Further, the “combination Emax” value is 0.201 in the assay on AU565 (Breast Carcinoma) [10]; 0.693 in assay [11]; 0.142 in assay [12]; 0.178 in assay [13]; 0.378 in assay [14].
